Experiments:
[1] = tested on: HuH-7 cells; assay: Inhibition of HuH-7 cell proliferation (CellTiter-Glo); assay type: cell-based; conditions: Homo sapiens, 72 hours
Description: 4. Experiment on the Inhibition of HuH-7 Cell Proliferation
In this experiment, the inhibitory effect of the compounds on HuH-7 cell proliferation was tested by a CellTiter-Glo method, and the half maximal inhibitory concentration (IC50) of the compounds on the activity of cell proliferation was determined.
1) A 96-well cell culture plate was seeded with 50˜100 μL of HuH-7 cell suspension at a density of 1-5×10^4 cells/ml. The culture plate was incubated in an incubator for 16˜24 hours (37° C., 5% CO2).
(§1) 2) Different concentrations of the test compound in a gradient dilution were added to the cells in the culture plate. The culture plate was incubated in an incubator for 72 hours (37° C., 5% CO2).
(§2) 3) 50˜100 μL of CellTiter-Glo reagent were added to each well. Then, the culture plate was shaken or left to stand for 5˜30 minutes at room temperature.
(§3) 4) The chemiluminescence signal values of each plate were determined by a microplate reader.
(§4) 5) The inhibition rates were calculated according to the chemiluminescence signal values.
6) The IC50 of the compound was obtained by curve fitting according to the inhibition rates at different concentrations, and the cell activity of the specific Example compounds is shown in Table 2.

[2] = tested on: Hep 3B cells; assay: Inhibition of Hep 3B cell proliferation (CellTiter-Glo); assay type: cell-based; conditions: Homo sapiens, Hep3B, 72 hours
Description: 3. Experiment on the Inhibition of Hep 3B Cell Proliferation
In this experiment, the inhibitory effect of the compounds on Hep 3B cell proliferation was tested by a CellTiter-Glo method, and the half maximal inhibitory concentration (IC50) of the compounds on the activity of cell proliferation was determined.
1) A 96-well cell culture plate was seeded with 50˜100 μL of Hep 3B cell suspension at a density of 1-5×10^4 cells/ml. The culture plate was incubated in an incubator for 16-24 hours (37° C., 5% CO2).
as §1
3) 50-100 μL of CellTiter-Glo reagent were added to each well. Then, the culture plate was shaken or left to stand for 5˜30 minutes at room temperature.
as §3, §4
6) The IC50 of the compound was obtained by curve fitting according to the inhibition rates at different concentrations, and the cell activity of the specific example compounds is shown in Table 2.

[3] = Pharmacokinetic (PK) analysis in rats; assay type: in vivo, Sprague Dawley (SD) rats; conditions: SD rats, single intragastric administration, 5 mg/kg, plasma; for AUC(0-t) / AUC(0-inf) / half-life / MRT / Cmax: Sprague-Dawley, rat, po; for AUC(0-t): read-out: Area Under Curve AUC0-t; for AUC(0-inf): read-out: Area Under Curve AUC0-∞; for half-life: read-out: Half-Time t1/2 (converted); for MRT: read-out: Mean Residence Time MRT; for Cmax: read-out: Plasma Concentration Cmax
Description: 6. Pharmacokinetic (PK) Analysis in Rats
Mode of administration: a single intragastric administration.
Formulation: 0.5% CMC and 1% Tween 80, ultrasonic dissolution.
Sampling points: 0.5, 1, 2, 4, 6, 8 and 24 hours after administration.
1. 1.0 ml of intravenous blood was collected and placed in a K2EDTA test tube.
The blood was centrifuged at room temperature at the speed of 1000˜3000×g for 5˜20 minutes to isolate the plasma, which was then stored at −80° C. 2. 160 μL of acetonitrile were added to 40 μL of plasma sample for precipitation, and then the mixture was centrifuged at the speed of 500˜2000×g for 5˜20 minutes. 3. 100 μL of treated solution were taken, and the concentration of the test compound was analyzed by LC/MS/MS. The LC/MS/MS analytical instrument was AB Sciex API 4000.
Liquid Chromatography Analysis:
Condition of Liquid chromatography: Shimadzu LC-20AD pump
Chromatographic column: phenomenex Gemiu 5 um C18 50×4.6 mm
Mobile phase: Solution A is 0.1% aqueous formic acid solution, and solution B is acetonitrile
Elution time: 0-3.5 minutes, the eluent was as follows:
Mass spectrometry analysis:
Mass spectrometer setup conditions: positive ion electrospray ionization (ESI) mode.

[4] = tested on: SK-HEP-1 cells; assay: Inhibition of SK-HEP-1 cell proliferation (CellTiter-Glo); assay type: cell-based; conditions: Homo sapiens, SK-HEP1, 72 hours
Description: 5. Experiment on the Inhibition of SK-HEP-1 Cell Proliferation
In this experiment, the inhibitory effect of the compounds on SK-HEP-1 cell proliferation was tested by a CellTiter-Glo method, and the half maximal inhibitory concentration (IC50) of the compounds on the activity of cell proliferation was determined.
1) A 96-well cell culture plate was seeded with 50˜100 μL of SK-HEP-1 cell suspension at a density of 1-5×10^4 cells/ml. The culture plate was incubated in an incubator for 16˜24 hours (37° C., 5% CO2).
as §1, §2, §3, §4
The IC50 of the compound was obtained by curve fitting according to the inhibition rates at different concentrations, and the cell activity of the specific Example compounds is shown in Table 2.

[5] = target: FGFR1 kinase (Homo sapiens (Human), UniProt P11362); assay: Enzymologic experiment of FGFR1 (TR-FRET); assay type: biochemical; conditions: TR-FRET kinase activity
Description: 2. Enzymologic Experiment of FGFR1
In this experiment, the inhibitory effect of the compounds on FGFR1 kinase activity was tested by a fluorescence resonance energy transfer (TR-FRET) method, and the half maximal inhibitory concentration (IC50) of the compounds on the FGFR1 kinase activity was determined.
1) 1˜5 μL of FGFR1 enzymatic solution was added to a 384-well plate, and the final concentration of the enzyme was 0.1˜5 nM.
2) 1˜5 μL of diluted solution in gradient of the compound was added.
3) 1˜5 μL of a substrate mixture containing substrate polypeptide with a final concentration of 5˜50 nM and ATP with a final concentration of 10˜200 μM was added.
4) The mixture was incubated for 0.5-3 hours at room temperature.
5) 10 μL of EDTA and a test solution comprising labeled antibody were added, and the plate was incubated for 1 hour at room temperature.
6) The fluorescence signal values of each plate were determined by a microplate reader at 665 nm.
7) The inhibition rates were calculated according to the fluorescence signal values.
The IC50 of the compound was obtained by curve fitting according to the inhibition rates at different concentrations, and the enzymatic activity of the specific example compounds is shown in Table 1.

Chain of FGFR1 kinase (P11362 22-822): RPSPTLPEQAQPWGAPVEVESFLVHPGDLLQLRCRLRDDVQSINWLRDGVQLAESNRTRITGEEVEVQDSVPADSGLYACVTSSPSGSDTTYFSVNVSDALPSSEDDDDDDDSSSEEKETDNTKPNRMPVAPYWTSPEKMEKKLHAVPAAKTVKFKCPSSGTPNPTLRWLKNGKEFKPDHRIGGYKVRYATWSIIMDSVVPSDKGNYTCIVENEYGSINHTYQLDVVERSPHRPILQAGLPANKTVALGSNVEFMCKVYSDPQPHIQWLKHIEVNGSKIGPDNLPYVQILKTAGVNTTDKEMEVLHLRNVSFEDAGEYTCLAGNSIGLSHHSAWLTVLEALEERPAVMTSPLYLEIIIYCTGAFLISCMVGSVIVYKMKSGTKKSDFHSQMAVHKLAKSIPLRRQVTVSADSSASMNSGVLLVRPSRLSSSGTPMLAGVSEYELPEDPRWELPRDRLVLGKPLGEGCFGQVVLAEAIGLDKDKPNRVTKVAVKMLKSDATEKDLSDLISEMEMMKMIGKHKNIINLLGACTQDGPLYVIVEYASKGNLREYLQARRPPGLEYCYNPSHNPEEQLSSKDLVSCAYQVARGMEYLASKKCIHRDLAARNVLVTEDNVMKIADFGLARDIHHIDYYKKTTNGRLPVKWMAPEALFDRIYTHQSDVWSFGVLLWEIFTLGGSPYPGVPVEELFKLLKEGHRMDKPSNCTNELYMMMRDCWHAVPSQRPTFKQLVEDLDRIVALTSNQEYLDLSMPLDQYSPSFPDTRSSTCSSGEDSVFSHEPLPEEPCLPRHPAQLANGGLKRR

`COCCNc1cc(NC(=O)N2CCCc3cc(CN(C)C(=O)[C@H]4CCCO4)c(C=O)nc32)ncc1C#N` [Example 1, (R)—N-(5-Cyano-4-((2-methoxyethyl)amino)pyridin-2-yl)-7-formyl-6-((N-methyltetrahydrofuran-2-carboxamido)methyl)-3,4-dihydro-1,8-naphthyridin-1(2H)-carb oxamide] gave an IC50 [1] of 11 nM, an IC50 [2] of 7.3 nM and a Peak Time tmax [3] of 2 h. It also gave an AUC(0-t) [3] of 6800 ng·h/mL, an AUC(0-inf) [3] of 6930 ng·h/mL and a half-life [3] of 1.1 h. The MRT [3] was 3.1 h, the Cmax [3] was 2070 ng/mL and the IC50 [4] was > 10000 nM. For the same molecule, the IC50 [5] was > 10000 nM.

Work on `COCCNc1cc(NC(=O)N2CCCc3cc(CN(C)C(=O)C4CCOC4)c(C=O)nc32)ncc1C#N` (stereo not shown) [Example 5, N-(5-Cyano-4-((2-methoxyethyl)amino)pyridin-2-yl)-7-formyl-6-((N-methyltetrahydrofuran-3-carboxamido)methyl)-3,4-dihydro-1,8-naphthyridin-1(2H)-carboxamide] yielded an IC50 [1] of 31.7 nM, an IC50 [2] of 9.1 nM and a Peak Time tmax [3] of 2 h. It also gave an AUC(0-t) [3] of 13000 ng·h/mL, an AUC(0-inf) [3] of 13400 ng·h/mL and a half-life [3] of 1.2 h. For the same molecule, the MRT [3] was 3.2 h, the Cmax [3] was 3570 ng/mL and the IC50 [4] was > 10000 nM. The IC50 [5] was > 10000 nM.

Molecule `COC[C@@H](C)Nc1cc(NC(=O)N2CCCc3cc(CN(C)C(=O)[C@H]4CCCO4)c(C=O)nc32)ncc1C#N` [Example 93, N-(5-Cyano-4-(((R)-1-methoxypropan-2-yl)amino)pyridin-2-yl)-7-formyl-6-(((R)—N-methyltetrahydrofuran-2-carboxamido)methyl)-3,4-dihydro-1,8-naphthyridin-1(2H)-carboxamide] has an IC50 [1] of 5 nM, an IC50 [2] of 3.7 nM and a Peak Time tmax [3] of 2 h. It also gave an AUC(0-t) [3] of 9420 ng·h/mL, an AUC(0-inf) [3] of 9480 ng·h/mL and a half-life [3] of 0.9 h. For the same molecule, the MRT [3] was 2.5 h, the Cmax [3] was 2860 ng/mL and the IC50 [4] was > 10000 nM. The IC50 [5] was > 10000 nM.

With `COCCNc1cc(NC(=O)N2CCCc3cc(CN(C)C(=O)C4CCOCC4)c(C=O)nc32)ncc1C#N` [Example 98, N-(5-Cyano-4-((2-methoxyethyl)amino)pyridin-2-yl)-7-formyl-6-((N-methyltetrahydro-2H-pyran-4-carboxamido)methyl)-3,4-dihydro-1,8-naphthyridin-1(2H)-carboxamide] the IC50 [1] was 11.2 nM, the IC50 [2] was 2.7 nM and the Peak Time tmax [3] was 2 h. The AUC(0-t) [3] was 6700 ng·h/mL, the AUC(0-inf) [3] was 6840 ng·h/mL and the half-life [3] was 0.9 h. For the same molecule, the MRT [3] was 3.1 h, the Cmax [3] was 2690 ng/mL and the IC50 [4] was > 10000 nM. For the same molecule, the IC50 [5] was > 10000 nM.

`CO[C@@H]1CCN(Cc2cc3c(nc2C=O)N(C(=O)Nc2cc(N[C@@H]4CCOC4)c(C#N)cn2)CCC3)C1=O` [Example 87, N-(5-Cyano-4-(((R)-tetrahydrofuran-3-yl)amino)pyridin-2-yl)-7-formyl-6-(((R)-3-methoxy-2-carbonylpyrrolidin-1-yl)methyl)-3,4-dihydro-1,8-naphthyridin-1(2H)-carboxamide] showed an IC50 [1] of 5.4 nM, an IC50 [2] of 2.2 nM and a Peak Time tmax [3] of 2 h. The AUC(0-t) [3] was 12400 ng·h/mL, the AUC(0-inf) [3] was 14700 ng·h/mL and the half-life [3] was 1.2 h. For the same molecule, the MRT [3] was 2.6 h, the Cmax [3] was 3360 ng/mL and the IC50 [4] was > 10000 nM. The IC50 [5] was > 10000 nM.

`CO[C@H]1CCN(Cc2cc3c(nc2C=O)N(C(=O)Nc2cc(N[C@H]4CCOC4)c(C#N)cn2)CCC3)C1=O` [Example 84, N-(5-Cyano-4-(((S)-tetrahydrofuran-3-yl)amino)pyridin-2-yl)-7-formyl-6-(((S)-3-methoxy-2-carbonylpyrrolidin-1-yl)methyl)-3,4-dihydro-1,8-naphthyridin-1(2H)-carboxamide] showed an IC50 [1] of 11 nM, an IC50 [2] of 2.4 nM and a Peak Time tmax [3] of 2 h. The AUC(0-t) [3] was 8860 ng·h/mL, the AUC(0-inf) [3] was 8950 ng·h/mL and the half-life [3] was 0.9 h. The MRT [3] was 3.1 h, the Cmax [3] was 2620 ng/mL and the IC50 [4] was > 10000 nM. For the same molecule, the IC50 [5] was > 10000 nM.

For `COCCNc1cc(NC(=O)N2CCCc3cc(CN(C)C(=O)[C@@H]4CCCO4)c(C=O)nc32)ncc1C#N` [Example 2, (S)—N-(5-Cyano-4-((2-methoxyethyl)amino)pyridin-2-yl)-7-formyl-6-((N-methyltetrahydrofuran-2-carboxamido)methyl)-3,4-dihydro-1,8-naphthyridin-1(2H)-carb oxamide], the IC50 [1] was 5.9 nM, the IC50 [2] was 5.3 nM and the Peak Time tmax [3] was 2 h. For the same molecule, the AUC(0-t) [3] was 5820 ng·h/mL, the AUC(0-inf) [3] was 5900 ng·h/mL and the half-life [3] was 1.2 h. The MRT [3] was 2.5 h, the Cmax [3] was 2200 ng/mL and the IC50 [4] was > 10000 nM. For the same molecule, the IC50 [5] was > 10000 nM.

`COCCNc1cc(NC(=O)N2CCCc3cc(CN(C)C(=O)C4COC4)c(C=O)nc32)ncc1C#N` [Example 3, N-(5-Cyano-4-((2-methoxyethyl)amino)pyridin-2-yl)-7-formyl-6-((N-methyloxetane-3-carboxamido)methyl)-3,4-dihydro-1,8-naphthyridin-1(2H)-carboxamide] gave an IC50 [1] of 38.8 nM, an IC50 [2] of 5.4 nM and a Peak Time tmax [3] of 2 h. The AUC(0-t) [3] was 6350 ng·h/mL, the AUC(0-inf) [3] was 6660 ng·h/mL and the half-life [3] was 1.6 h. For the same molecule, the MRT [3] was 3.3 h, the Cmax [3] was 2230 ng/mL and the IC50 [4] was > 10000 nM. The IC50 [5] was > 10000 nM.

In the case of `COCCNc1cc(NC(=O)N2CCCc3cc(CN(C)C(=O)[C@H]4CCOC4)c(C=O)nc32)ncc1C#N` [Example 6, (S)—N-(5-Cyano-4-((2-methoxyethyl)amino)pyridin-2-yl)-7-formyl-6-((N-methyltetrahydrofuran-3-carboxamido)methyl)-3,4-dihydro-1,8-naphthyridin-1(2H)-carb oxamide], the IC50 [1] is reported as 9.7 nM, the IC50 [2] is reported as 2.7 nM and the IC50 [4] is reported as > 10000 nM. For the same molecule, the IC50 [5] was > 10000 nM.

In the case of `COCC(=O)N(C)Cc1cc2c(nc1C=O)N(C(=O)Nc1cc(N3CC[C@H](OC)C3)c(C#N)cn1)CCC2` [Example 106, (S)—N-(5-Cyano-4-(3-methoxypyrrolidin-1-yl)pyridin-2-yl)-7-formyl-6-((2-methoxy-N-methylacetamido)methyl)-3,4-dihydro-1,8-naphthyridin-1(2H)-carboxamide], the IC50 [1] is reported as 21.1 nM, the IC50 [2] is reported as 5.8 nM and the IC50 [4] is reported as > 10000 nM. The IC50 [5] was > 10000 nM.

Source: patent publication US11608332B2, “FGFR4 inhibitor and preparation method and use thereof” (Jiangsu Hansoh Pharmaceutical Group Co., Ltd., priority 2016, dated 2023)
